Laboratory results published in PMC12455397 (Angewandte Chemie (International Ed. in English), 2025).

Assays:
[1] = system: Nrf2-regulated genes (AKR1B10, NQO1, TRXR1, HO-1) in HaCaT human keratinocytes; experiment: HaCaT cell assay, Western Blotting of Nrf2-regulated proteins; format: cell-based; conditions: 24 h
[2] = system: Nrf2-regulated genes (AKR1B10, NQO1, TRXR1, HO-1) in HaCaT human keratinocytes; experiment: HaCaT cell assay, RT-qPCR of Nrf2-regulated genes; format: cell-based; conditions: WT HaCaT, 3, 1 and 0.33 µM, 5 h, normalized to TBP
[3] = system: NQO1 mRNA in BEAS-2B cells; experiment: qPCR-based BEAS-2B cell assay (NQO1 mRNA); parameters: species or system human; conditions: Homo sapiens, BEAS-2B, mean ± SEM, 2-4 independent experiments
Method: RT-qPCR were stimulated with compounds or DMSO diluted in DMEM and incubated for 24 h. DMSO was added accordingly to highest percentage compound volume added.
Upon 24 hour compound stimulation, the cells were trypsinized, washed, spun down and resuspended in 70 μL of ice-cold Pierce RIPA lysis buffer (Thermo Scientific) supplemented with 10 mM NaF, 1× complete protease cocktail inhibitor (Roche), and 5 IU mL-1 benzonase (Sigma), respectively. The protein concentrations were determined using the BCA protein assay kit (Thermo Scientific) and samples was equalized accordingly to the sample of lowest protein concentration. 1×XT sample buffer (Bio-Rad) and 1×XT reducing agent (Bio-Rad) were added to the samples, and lysates were denatured by boiling for 5 min at 95 °C. Denatured samples was separated by SDS-PAGE on a 4–20% Criterion TGX precast gradient gel (Bio-Rad). The gel ran initially for 20 min at 70 V and 45 min at 120 V and was then transferred onto a PVDF membrane (Bio-Rad) using a Trans-Blot Turbo transfer system. […]
Upon 5 hour compound stimulation, RNA was extracted from the cells using the High Pure RNA Isolation Kit (Roche, 11828665001) according to the manufacturer’s instructions. […] The quality and purity of the RNAs were assessed by Nanodrop spectrometry (DeNovix DS-11). Using the TaqMan detection systems, the gene expression of HO-1 (HMOX-1), NQO1, AKR1B10, and TRXR1 was determined by real-time PCR. […] The commercially available TaqMan assay (Thermo Fischer Scientific, cat. no. 4392938) was used, and samples were analyzed in a final volume of 10 μL reaction mix containing 5 μL of master mix, 0.2 μL of RT enzyme, 2.3 μL of nuclease-free water, […] (TATA-Box Binding Protein/TBP; […]
Hs00917067_m1, Thermo Fisher), and 2 μL of pure RNA. The samples were analyzed using a QuantStudioTM 3 real-time PCR instrument with the following program: 1 × (10 min, 48.0 °C; 10 min, 95.0 °C); 40 × (30 s, 95.0 °C; 1 min, 60.0 °C). […]
The upregulation of NQO1 mRNA in BEAS-2B cells was measured by qPCR, as previously described.[20] […]

[4] = system: NLRP3 inflammasome in macrophage-derived THP-1 cells; experiment: NLRP3 inflammasome / TLR4 activation in THP-1 macrophages (WB, ELISA); format: cell-based; conditions: 100 µM, 24 h
[5] = system: cGAS-STING pathway in macrophage-derived THP-1 cells; experiment: cGAS-STING pathway in THP-1 macrophages (WB); format: cell-based; conditions: 100 µM, 24 h; cGAMP 4 µg/mL 6 h
[6] = system: IFN signalling in macrophage-derived THP-1 cells; experiment: Type I IFN signalling after IFNβ stimulation in THP-1 macrophages (WB); format: cell-based; conditions: 100 µM, 24 h; IFNβ 500 U/mL 1 h
[7] = system: Nrf2 KO THP1 cells differentiated into macrophages; experiment: RNA sequencing transcriptome analysis, Nrf2 KO THP-1 macrophages; format: cell-based; conditions: 12 h, CDDO-Me 0.1 µM, DMF, 24, 28 10 µM, KI-696 1 µM
THP1 cells = format: cell-based; conditions: THP-1 WT, 10 and 100 µM, 48 h
Method: THP1 cells were exposed to the compounds for 48 hours at 10 and 100 μM. Viability was quantified using
propidium iodide exclusion through flow cytometry. PI-positive cells (dead or necrotic cells) were quantified
through red fluorescence on a BD C6 Accuri flow cytometer using a 488 nm excitation wavelength and an
emission filter of 585 nm ± 40 nm (BD Biosciences). 50,000 events were collected (n = 3 technical replicates
per condition). The experiment was repeated twice. Data are presented as mean ± SEM (n = 4‒10).

[8] = system: differentiated THP1 macrophages (WT)
human Keap1 Kelch = human Keap1 Kelch (Homo sapiens, UniProt Q14145); experiment: Fluorescence polarization (FP) competition assay with Cy5-Nrf2 peptide probe; conditions: for Ki: ≥3 individual measurements
Method: Fluorescence Polarization Assay
(3 nM) and human Keap1 Kelch at 14 nM in the 1×HBSTET assay buffer, as previously.[1, 3-5] In short, the assay was performed in black flat-bottom 384-well plates (Corning Life Sciences, NY) allowing an assay volume of 30 μL/well. Proper mixing and elimination of air bubbles was ascertained by spinning down the plates and incubation for 10–15 minutes at RT before measuring FP levels on a Safire2 plate-reader (Tecan, Männedorf, Switzerland). The Ki values of the compounds were determined by dose-response experiments (12-points, 4% DMSO in all wells), where FP values were fitted to the equation Y = Bottom + (Top - Bottom)/[1 + (10HillSlope*(LogIC50-X))]; X representing the logarithmic value of compound concentration. The resulting IC50 value, together with the Kd value (the dissociation constant between probe and Keap1 Kelch, determined in a prior experiment) and Keap1 Kelch concentrations, was used to calculate the theoretical competitive inhibition constant, the Ki value.[18]

[9] = LPS or LPS+nigericin stimulation
[10] = WT, 12 h, CDDO-Me 0.1 µM, SFN, DMF, 24, 28 10 µM, KI-696 1 µM, NS = not significant

Sequence of human Keap1 Kelch (Q14145 321-609): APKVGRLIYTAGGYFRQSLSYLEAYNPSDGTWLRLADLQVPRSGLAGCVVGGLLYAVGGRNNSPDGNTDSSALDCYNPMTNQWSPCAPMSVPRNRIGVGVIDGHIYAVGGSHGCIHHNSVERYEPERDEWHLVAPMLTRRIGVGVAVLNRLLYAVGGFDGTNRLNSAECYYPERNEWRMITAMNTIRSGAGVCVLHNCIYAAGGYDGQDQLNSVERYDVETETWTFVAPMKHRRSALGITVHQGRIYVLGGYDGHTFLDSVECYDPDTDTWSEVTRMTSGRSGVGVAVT

## Cc1cc2c(cc1C(CC(=O)O)c1ccc3ccc(OCC(=O)NC4CCCCCC4)cc3c1)OCO2 (stereo not shown) [Compound 24]
[1]; HaCaT, 10 µM
  protein levels of Nrf2-regulated genes by WB: strong bands in WB for all tested proteins
[1]; HaCaT, 10, 3, 1 µM
  relative cell potency among the six compounds (WB): most potent
[2]
  target gene mRNA expression (RT-qPCR): several‐fold increases in target gene mRNA expression
[3]
  EC50: 110 nM
[4]
  NLRP3 inflammasome activation: release of cleaved caspase-1 and cleaved IL-1β in supernatants (WB): markedly decreased NLRP3 inflammasome activation
  cleavage of gasdermin D (GSDMD) (WB): prevented the cleavage of gasdermin D
[4]; LPS 100 ng/mL 3 h + nigericin 10 µM 1 h
  IL-1β release (ELISA) following NLRP3 activation: confirmed a decrease
[4]; LPS 2 µg/mL 6 h
  IL-1β release (ELISA) following high concentrations of LPS: no statistical difference was observed
[4]; [9]
  expression of NLRP3 (WB): markedly reduced
  total protein levels of pro-IL-1β (WB): also reduced
[5]
  ISG15 levels (WB): reduced levels
  total STING levels and STING activation (phosphorylated STING and TBK1) (WB): reduced total STING levels and STING activation
[6]
  IFN signalling (phosphorylated STAT1, IFIT1 protein levels) (WB): did not affect IFN signalling
[7]
  number of up- or downregulated genes in Nrf2 KO cells: 347 genes
THP1 cells
  cell viability: did not reduce cell viability
[8]; Table S3, THP-1, 12 h
  AKR1B10 FC: 6,62 fold
  CASP1 FC: 0,65 fold
  COL1A1 FC: 1,40 fold
  COL4A1 FC: 1,16 fold
  COL4A2 FC: 1,10 fold
  CYP1B1 FC: 1,14 fold
  GPX1 FC: 0,60 fold
  GPX4 FC: 1,13 fold
  IFNAR1 FC: 0,93 fold
  IFNAR2 FC: 1,00 fold
  IFNGR1 FC: 0,63 fold
  IFNGR2 FC: 0,73 fold
  IL1B FC: 0,85 fold
  IRF3 FC: 0,96 fold
  LAMB1 FC: 5,65 fold
  LAMB4 FC: 4,43 fold
  MMP8 FC: 0,79 fold
  MMP9 FC: 0,91 fold
  MMP12 FC: 0,51 fold
  NLRP3 FC: 0,79 fold
  NOD2 FC: 0,35 fold
  NOXA1 FC: 0,41 fold
  SOCS1 FC: 2,11 fold
  SOCS3 FC: 2,26 fold
  SOD1 FC: 0,41 fold
  SOD2 FC: 0,59 fold
  STAT1 FC: 0,82 fold
  TBK1 FC: 0,86 fold
  TLR4 FC: 1,17 fold
  TNFRSF1B FC: 1,08 fold
  TRAP1 FC: 0,82 fold
  cGAS FC: 1,36 fold
[8]; WT, 10 µM, 12 h
  KEGG pathway analysis of upregulated genes: activated other important gene clusters involved in cytokine receptor interaction and activation of immune cells
[8]; WT, 12 h, CDDO-Me 0.1 µM, SFN, DMF, 24, 28 10 µM, KI-696 1 µM
  Average FC of upregulated Nrf2-dependent genes: 2.7 fold
[8]; [10]
  GCLM fold change vs vehicle: 3.0 fold
  HMOX1 fold change vs vehicle: 2.2 fold
  SRXN1 fold change vs vehicle: 2.5 fold
  TXNRD1 fold change vs vehicle: 2.9 fold
[8]; WT, 24 h, 10 µM (footnote * of Figure 7c)
  NQO1 upregulation at 24 h: 1.5 fold
Human Keap1 Kelch; FP (Ki/nM), Table S2, mean ± SEM, NA: not active (measured up to 4 mM)
  Ki: 10.1 ± 1.4 nM
Human Keap1 Kelch; Ki (FP), mean, text and figures
  Ki: 10 nM
Human Keap1 Kelch; Peak 1 vs Peak 2 after chiral HPLC separation
  fold difference in affinity (FP) between the enantiomers of 24: 14 fold
Human Keap1 Kelch; from FP Ki
  ligand efficiency (LE): 0.30
